Experimental data: patent publication US6737383B1, “Herbicidal oxadiazolidines” (priority 1999, dated 2004)

Legend:
soybean = test: Test B pre/postemergence soybean; format: in vivo, Glycine max
Outline: (§1)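 Herbicidal effect was estimated by eye on a ten-point control scale after plants spent twelve to sixteen days in a greenhouse following soil or foliar treatment. Foliar sprays targeted plants at one to four leaves; all doses were formulated in a non-phytotoxic solvent with surfactant.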

wild oat = test: Test B pre/postemergence wild oat; format: in vivo, Avena fatua
Outline: as §1

cocklebur = test: Test B pre/postemergence cocklebur; format: in vivo, Xanthium strumarium
Outline: as §1

smallflower flatsedge = test: Test B flood test smallflower flatsedge; format: in vivo, Cyperus difformis
Outline: (§2)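 Each value is a visual injury score relative to controls, with 10 meaning complete control and 0 no effect. Evaluation took place twelve to sixteen days after the 2-leaf-stage plants were treated and kept in the greenhouse.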

sugar beet = test: Test B pre/postemergence sugar beet; format: in vivo, Beta vulgaris
Outline: as §1

rape = test: Test B pre/postemergence rape; format: in vivo, Brassica napus
Outline: as §1

duck salad = test: Test B flood test duck salad; format: in vivo, Heteranthera limosa
Outline: as §2

pigweed = test: Test B pre/postemergence pigweed; format: in vivo, Amaranthus retroflexus
Outline: as §1

bedstraw = test: Test B pre/postemergence bedstraw; format: in vivo, Galium aparine; settings: Preemergence
Outline: as §1

purple nutsedge = test: Test B pre/postemergence purple nutsedge; format: in vivo, Cyperus rotundus
Outline: as §1

blackgrass = test: Test B pre/postemergence blackgrass; format: in vivo, Alopecurus myosuroides
Outline: as §1

wheat = test: Test B pre/postemergence wheat; format: in vivo, Triticum aestivum
Outline: as §1

corn = test: Test B pre/postemergence corn; format: in vivo, Zea mays
Outline: as §1

giant foxtail = test: Test B pre/postemergence giant foxtail; format: in vivo, Setaria faberii
Outline: as §1

velvetleaf = test: Test B pre/postemergence velvetleaf; format: in vivo, Abutilon theophrasti
Outline: as §1

rice = test: Test B flood test rice; format: in vivo, Oryza sativa
Outline: as §2

bamyardgrass = test: Test B flood test barnyardgrass; format: in vivo, Echinochloa crus-galli
Outline: as §2

surinam grass = test: Test B pre/postemergence surinam grass; format: in vivo, Brachiaria decumbens
Outline: as §1

crabgrass = test: Test B pre/postemergence crabgrass; format: in vivo, Digitaria sanguinalis
Outline: as §1

morningglory = test: Test B pre/postemergence morningglory; format: in vivo, Ipomoea hederacea
Outline: as §1

[1] = Postemergence, Rate 250 g/ha, scale 0 to 10, 0 is no effect, 10 is complete control
[2] = Postemergence, Rate 500 g/ha, scale of 0 to 10 where 0 is no effect and 10 is complete control
[3] = Preemergence, Rate 62 g/ha, scale 0 to 10 (0 no effect, 10 complete control)
[4] = Preemergence, Rate 125 g/ha, scale of 0 to 10 where 0 is no effect and 10 is complete control
[5] = Preemergence, Rate 250 g/ha, scale 0 to 10, 0 is no effect, 10 is complete control
[6] = Preemergence, Rate 500 g/ha, scale 0 to 10, 0 is no effect, 10 is complete control
[7] = Postemergence, Rate 125 g/ha, scale 0 to 10, 0 is no effect, 10 is complete control
[8] = Rate 62 g/ha, Postemergence, scale of 0 to 10 where 0 is no effect and 10 is complete control
[9] = Rate 62 g/ha, flood test species, Pre-emergence, visual evaluation after twelve to sixteen days
[10] = Rate 125 g/ha, under heading Pre-emergence, flood test species, visual evaluation after twelve to sixteen days
[11] = Rate 250 g/ha, Pre-emergence, flood-test species, scale 0 to 10, 0 is no effect, 10 is complete control
[12] = Rate 500 g/ha, Pre-emergence, flood test species, scale 0 to 10 (0 no effect, 10 complete control)
[13] = Preemergence, Rate 250 g/ha, scale of 0 to 10 where 0 is no effect and 10 is complete control

SMILES: Cc1nc(Cl)sc1C(C)n1c(=O)on(C(=O)N(c2ccc(Cl)cc2)C(C)C)c1=O (centres unmarked) [Compound 406]
- Plant response rating, Soybean (soybean; [1]): 2
- Soybean plant response rating (soybean; [2]): 2
- Plant response rating, Soybean (soybean; [3]): 0
- Plant response rating, Soybean (soybean; [4]): 0
- Soybean plant response rating (soybean; [5]): 0
- Soybean plant response rating (soybean; [6]): 0
- Wild oats plant response rating (wild oat; [2]): 0
- Plant response rating, Wild oats (wild oat; [3]): 0
- Plant response rating, Wild oats (wild oat; [4]): 0
- Wild oats plant response rating (wild oat; [5]): 0
- Wild oats plant response rating (wild oat; [6]): 0
- Plant response rating, Cocklebur (cocklebur; [7]): 0
- Plant response rating, Cocklebur (cocklebur; [1]): 0
- Cocklebur plant response rating (cocklebur; [2]): 0
- Plant response rating, Cocklebur (cocklebur; [3]): 0
- Plant response rating, Cocklebur (cocklebur; [4]): 0
- Cocklebur plant response rating (cocklebur; [5]): 0
- Cocklebur plant response rating (cocklebur; [6]): 0
- Cocklebur plant response rating (cocklebur; [8]): 0
- Plant response rating, S. Flatsedge (0 to 10 scale, 0 is no effect, 10 is complete control) (smallflower flatsedge; [9]): 0
- S. Flatsedge plant response rating (0 to 10 scale, 0 is no effect, 10 is complete control) (smallflower flatsedge; [10]): 0
- S. Flatsedge plant response rating (smallflower flatsedge; [11]): 0
- S. Flatsedge plant response rating (smallflower flatsedge; [12]): 0
- Plant response rating, Sugarbeets (sugar beet; [1]): 0
- Sugarbeets plant response rating (sugar beet; [2]): 0
- Plant response rating, Sugarbeets (sugar beet; [3]): 0
- Plant response rating, Sugarbeets (sugar beet; [4]): 0
- Sugarbeets plant response rating (sugar beet; [5]): 0
- Sugarbeets plant response rating (sugar beet; [6]): 0
- Plant response rating, Rape (rape; [1]): 0
- Rape plant response rating (rape; [2]): 0
- Plant response rating, Rape (rape; [3]): 0
- Plant response rating, Rape (rape; [4]): 0
- Rape plant response rating (rape; [5]): 0
- Rape plant response rating (rape; [6]): 0
- Plant response rating, Ducksalad (0 to 10 scale, 0 is no effect, 10 is complete control) (duck salad; [9]): 0
- Ducksalad plant response rating (0 to 10 scale, 0 is no effect, 10 is complete control) (duck salad; [10]): 0
- Ducksalad plant response rating (duck salad; [11]): 0
- Ducksalad plant response rating (duck salad; [12]): 0
- Plant response rating, Redroot pigweed (pigweed; [1]): 0
- Redroot pigweed plant response rating (pigweed; [2]): 0
- Plant response rating, Redroot pigweed (pigweed; [3]): 0
- Plant response rating, Redroot pigweed (pigweed; [4]): 0
- Redroot pigweed plant response rating (pigweed; [5]): 0
- Redroot pigweed plant response rating (pigweed; [6]): 0
- Plant response rating, Bedstraw (bedstraw; Rate 62 g/ha, scale 0 to 10 (0 no effect, 10 complete control)): 0
- Plant response rating, Bedstraw (bedstraw; Rate 125 g/ha, scale of 0 to 10 where 0 is no effect and 10 is complete control): 0
- Bedstraw plant response rating (bedstraw; Rate 250 g/ha, scale of 0 to 10 where 0 is no effect and 10 is complete control): 0
- Plant response rating, Nutsedge (purple nutsedge; [1]): 0
- Nutsedge plant response rating (purple nutsedge; [2]): 0
- Plant response rating, Nutsedge (purple nutsedge; [3]): 0
- Plant response rating, Nutsedge (purple nutsedge; [4]): 0
- Nutsedge plant response rating (purple nutsedge; [5]): 0
- Nutsedge plant response rating (purple nutsedge; [6]): 0
- Plant response rating, Blackgrass (blackgrass; [7]): 0
- Plant response rating, Blackgrass (blackgrass; [1]): 0
- Blackgrass plant response rating (blackgrass; [2]): 0
- Plant response rating, Blackgrass (blackgrass; [3]): 0
- Plant response rating, Blackgrass (blackgrass; [4]): 0
- Blackgrass plant response rating (blackgrass; [13]): 0
- Blackgrass plant response rating (blackgrass; [6]): 0
- Blackgrass plant response rating (blackgrass; [8]): 0
- Wheat plant response rating (wheat; [2]): 0
- Plant response rating, Wheat (wheat; [3]): 0
- Plant response rating, Wheat (wheat; [4]): 0
- Wheat plant response rating (wheat; [5]): 0
- Wheat plant response rating (wheat; [6]): 0
- Plant response rating, Corn (corn; [7]): 0
- Plant response rating, Corn (corn; [1]): 0
- Corn plant response rating (corn; [2]): 0
- Plant response rating, Corn (corn; [3]): 0
- Plant response rating, Corn (corn; [4]): 0
- Corn plant response rating (corn; [5]): 0
- Corn plant response rating (corn; [6]): 0
- Corn plant response rating (corn; [8]): 0
- Plant response rating, Giant foxtail (giant foxtail; [7]): 0
- Plant response rating, Giant foxtail (giant foxtail; [1]): 0
- Giant foxtail plant response rating (giant foxtail; [2]): 0
- Plant response rating, Giant foxtail (giant foxtail; [3]): 0
- Plant response rating, Giant foxtail (giant foxtail; [4]): 0
- Giant foxtail plant response rating (giant foxtail; [5]): 2
- Giant foxtail plant response rating (giant foxtail; [6]): 9
- Giant foxtail plant response rating (giant foxtail; [8]): 0
- Plant response rating, Velvetleaf (velvetleaf; [1]): 0
- Velvetleaf plant response rating (velvetleaf; [2]): 0
- Plant response rating, Velvetleaf (velvetleaf; [3]): 0
- Plant response rating, Velvetleaf (velvetleaf; [4]): 0
- Velvetleaf plant response rating (velvetleaf; [5]): 0
- Velvetleaf plant response rating (velvetleaf; [6]): 0
- Plant response rating, Rice (0 to 10 scale, 0 is no effect, 10 is complete control) (rice; [9]): 0
- Rice plant response rating (0 to 10 scale, 0 is no effect, 10 is complete control) (rice; [10]): 0
- Rice plant response rating (rice; [11]): 0
- Rice plant response rating (rice; [12]): 0
- Plant response rating, Barnyardgrass (0 to 10 scale, 0 is no effect, 10 is complete control) (bamyardgrass; [9]): 0
- Barnyardgrass plant response rating (0 to 10 scale, 0 is no effect, 10 is complete control) (bamyardgrass; [10]): 0
- Barnyardgrass plant response rating (bamyardgrass; [11]): 0
- Barnyardgrass plant response rating (bamyardgrass; [12]): 0
- Plant response rating, B. signalgrass (surinam grass; [7]): 0
- Plant response rating, B. signalgrass (surinam grass; [1]): 0
- B. signalgrass plant response rating (surinam grass; [2]): 0
- Plant response rating, B. signalgrass (surinam grass; [3]): 0
- Plant response rating, B. signalgrass (surinam grass; [4]): 0
- B. signalgrass plant response rating (surinam grass; [13]): 0
- B. signalgrass plant response rating (surinam grass; Preemergence, Rate 500 g/ha, scale of 0 to 10 where 0 is no effect and 10 is complete control): 0
- B. signalgrass plant response rating (surinam grass; [8]): 0
- Plant response rating, Crabgrass (crabgrass; [7]): 0
- Plant response rating, Crabgrass (crabgrass; [1]): 0
- Crabgrass plant response rating (crabgrass; [2]): 0
- Plant response rating, Crabgrass (crabgrass; [3]): 0
- Plant response rating, Crabgrass (crabgrass; [4]): 0
- Crabgrass plant response rating (crabgrass; [5]): 2
- Crabgrass plant response rating (crabgrass; [6]): 6
- Crabgrass plant response rating (crabgrass; [8]): 0
- Plant response rating, Morningglory (morningglory; [1]): 2
- Morningglory plant response rating (morningglory; [2]): 2
- Plant response rating, Morningglory (morningglory; [3]): 0
- Plant response rating, Morningglory (morningglory; [4]): 0
- Morningglory plant response rating (morningglory; [5]): 0
- Morningglory plant response rating (morningglory; [6]): 0
